From EP4674418A1, “SOLUTION, FREEZE-DRIED FORMULATION, FREEZE-DRIED F[…] PACKAGE, INJECTION, AND INJECTION PREPARATION METHOD” (Ascentawits Pharmaceuticals, Ltd., priority 2023, dated 2024)
Converted amounts (≈) assume the structure as drawn. Where two headings read alike, the source gives them in different places.

Key:
[1] = concentrated injection with ethanol, dimethlyacetamide, polysorbate 80; mainly induced by dimethlyacetamide; WO2015013448A1; cited from earlier work
[2] = Freeze-thaw cycle stability of freeze-dried formulations; assay type: physicochemical; conditions: TH-302 active pharmaceutical ingredient used for the two batches
Procedure: The freeze-thaw test was to place the sample in the dark at (-20°C±5°C) for 2 days, and at (25°C±5°C) for another 2 days, as a cycle. The HPLC purity of TH-302 in the freeze-dried samples was determined. Table 32: HPLC purity test data of TH-302 active pharmaceutical ingredient, two batches of prepared freeze-dried formulations, and the freeze-dried formulations after three freeze-thaw cycles (%)

[3] = Solubility experiment of TH-302 (saturated solution method, HPLC); assay type: physicochemical; conditions: thermodynamic from solid
Procedure: The solubility is measured in an experiment by the saturated solution method; that is, the solid TH-302 was directly charged into the solvent until insoluble matter or turbidity appears. After clarification for a period of time, the solution was directly filtered. The clarified filtrate was taken directly for determination of the concentration of TH-302. The resulting concentration is exactly the solubility of TH-302 in this solvent system. Please refer to Tables 1, 2, and 3 for specific solubility data.
For the method for measuring the concentration of TH-302 (mg/ml), please refer to the HPLC method described in the patent WO2008083101A1 owned by Threshold Pharmaceuticals Inc. (see Example 2. An Ethanol Formulation of TH302, for details); and the external standard method was used for quantification.

[4] = Saturated solubility of the drug in D5W solution under strong shaking; assay type: physicochemical; conditions: 5% glucose solution (D5W), saline or isotonic, thermodynamic from solid, shaken 2 minutes, filtered, room temperature 24 hours
Procedure: The TH-302 sample was weighed accurately in an amount of about 60 mg, placed in a transparent vial, and added with 6 mL of 5% glucose solution (D5W). The resulting solution was shaken vigorously for 2 minutes to obtain a solubility- stock solution. It was observed that the solubility-stock solution contained insoluble substances. Thus, the solubility- stock solution was filtered and then became clear. […] This value was exactly the saturated solubility of the drug in D5W solution.

For Cn1c(COP(=O)(NCCBr)NCCBr)cnc1[N+](=O)[O-] [TH-302], the TH-302 administration reactions [1] is given as “lip swelling and urticaria”, the HPLC purity [2] is given as 95.87% and the solubility ([3]; 1% N,N-dimethylacetamide aqueous solution (volume), water, 1%N,N-dimethlyacetamide aqueous solution (volume), read-out: Solubility) is given as 8050 µg/mL (≈ 17.9 mM). It also gave a solubility ([3]; 1% ethanol aqueous solution (volume), water, read-out: Solubility) of 6580 µg/mL (≈ 14.7 mM), a solubility ([3]; 1% polyethylene glycol aqueous solution (volume), water, read-out: Solubility) of 6810 µg/mL (≈ 15.2 mM) and a solubility ([3]; 20% ethanol aqueous solution (volume), aqueous with cosolvent or surfactant or cyclodextrin, read-out: Solubility) of 8400 µg/mL (≈ 18.7 mM). It also gave a solubility ([3]; aqueous with cosolvent or surfactant or cyclodextrin, 1%Tween 80 aqueous solution (volume), read-out: Solubility) of 7210 µg/mL (≈ 16.1 mM), a solubility ([3]; aqueous with cosolvent or surfactant or cyclodextrin, 20% tert-butanol aqueous solution, volume ratio, commercial TH-302, read-out: Solubility) of 10000 µg/mL and a solubility ([3]; aqueous with cosolvent or surfactant or cyclodextrin, 30% tert-butanol in water, mass ratio, TH-302 synthesized by the applicants, read-out: Solubility) of 42000 µg/mL. The solubility ([3]; aqueous with cosolvent or surfactant or cyclodextrin, 40% tert-butanol aqueous solution, volume ratio, commercial TH-302, read-out: Solubility) was greater than 40000 µg/mL, the solubility ([3]; organic solvent or mixture, 60% tert-butanol in water, mass ratio, TH-302 synthesized by the applicants, read-out: Solubility) was 146000 µg/mL and the solubility ([3]; organic solvent or mixture, 70% tert-butanol in water, mass ratio, TH-302 synthesized by the applicants, read-out: Solubility) was 165000 µg/mL. For the same compound, the solubility ([3]; organic solvent or mixture, 75% tert-butanol in water, mass ratio, TH-302 synthesized by the applicants, read-out: Solubility) was 151000 µg/mL, the solubility ([3]; organic solvent or mixture, 80% tert-butanol aqueous solution, volume ratio, commercial TH-302, read-out: Solubility) was 88500 µg/mL and the solubility ([3]; organic solvent or mixture, 80% tert-butanol in water, mass ratio, TH-302 synthesized by the applicants, read-out: Solubility) was 143000 µg/mL. It also gave a solubility ([3]; organic solvent or mixture, 90% tert-butanol aqueous solution, volume ratio, commercial TH-302, read-out: Solubility) of 76400 µg/mL, a solubility ([3]; organic solvent or mixture, 90% tert-butanol in water, mass ratio, TH-302 synthesized by the applicants, read-out: Solubility) of 66600 µg/mL and a solubility ([3]; organic solvent or mixture, 90% tert-butanol/10% ethanol, volume ratio, commercial TH-302, read-out: Solubility) of 10700 µg/mL. For the same compound, the solubility ([3]; organic solvent or mixture, 95% tert-butanol aqueous solution, volume ratio, commercial TH-302, read-out: Solubility) was 32300 µg/mL, the solubility ([3]; organic solvent or mixture, 95% tert-butanol in water, mass ratio, TH-302 synthesized by the applicants, read-out: Solubility) was 36800 µg/mL and the solubility ([3]; organic solvent or mixture, 95% tert-butanol/5% ethanol, volume ratio, commercial TH-302, read-out: Solubility) was 9980 µg/mL. The solubility ([3]; organic solvent or mixture, 100% tert-butanol, TH-302 synthesized by the applicants, read-out: Solubility) was 11800 µg/mL (≈ 26.2 mM), the solubility ([3]; organic solvent or mixture, tert-butanol, commercial TH-302, read-out: Solubility) was 8980 µg/mL (≈ 20 mM) and the solubility ([3]; pH 2, simulated gastric fluid, pH2, HCl solution, read-out: Solubility) was 6940 µg/mL (≈ 15.5 mM). For the same compound, the solubility ([3]; pH 4, aqueous buffer, pH4, phthalate buffer solution, read-out: Solubility) was 7220 µg/mL (≈ 16.1 mM), the solubility ([3]; pH 6, aqueous buffer, pH6, phosphate buffer solution, read-out: Solubility) was 5810 µg/mL (≈ 12.9 mM) and the solubility ([3]; pH 7, aqueous buffer, pH7, phosphate buffer solution, read-out: Solubility) was 5870 µg/mL (≈ 13.1 mM). It also gave a solubility ([3]; pH 8, aqueous buffer, pH8, phosphate buffer solution, read-out: Solubility) of 5940 µg/mL (≈ 13.2 mM), a solubility ([3]; pH 10, aqueous buffer, pH10, borate buffer solution, read-out: Solubility) of 6070 µg/mL (≈ 13.5 mM) and a solubility ([3]; tert-butanol-water mixed solvent, aqueous with cosolvent or surfactant or cyclodextrin, summary statement, maximum reached, read-out: solubility in the tert-butanol-water mixed solvent system) of no less than 160000 µg/mL. For the same compound, the solubility at 2 min [4] was 7250 µg/mL (≈ 16.1 mM).
